According to US20220160705A1, “METHODS FOR CONTROLLING PROSTAGLANDIN-MEDIATED BIOLOGICAL PROCESSES” (Cornell University, priority 2019, published 2022):
“Also recorded” adds a separate entry of the source.

What was measured:
[1] = tested on: IRE1α-XBP1 signaling; assay: Xbp1s and Ptges mRNA in peritoneal leukocytes after acetic acid injection (RT-qPCR); assay type: in vivo, C57BL/6J mice; settings: i.p. 6 hours and 30 minutes before 0.9% v/v acetic acid; KIRA6 25 mg/kg, MKC8866 20 mg/kg; vs vehicle
Procedure: Total RNA was isolated using RNeasy Mini kit or QIAzol lysis reagent (Qiagen) according to the manufacturer's instructions. RNA (0.1-1 μg) was reverse-transcribed to generate cDNA using the qScript cDNA synthesis kit (Quantabio). Quantitative RT-PCR was performed using PerfeCTa SYBR green fastmix (Quantabio) and TaqMan Universal PCR master mix (Life Technologies) on a QuantStudio 6 Flex real-time PCR system (Applied Biosystems). Normalized gene expression was calculated by comparative threshold cycle method using ACTB or Actb as a control. Xbp1 splicing assays were performed as described by Lee et al. (Proc Natl Acad Sci USA 100, 9946 (Aug. 19, 2003)). PCR products were separated by electrophoresis through a 2.5% agarose gel and visualized by ethidium bromide staining. Primers used in this study are described in Table 9.
(§1) To determine if pharmacological disabling of IRE1α-XBP1 signaling could reduce inflammatory visceral pain, two commercially available inhibitors of IRE1α were employed: the kinase domain-specific inhibitor KIRA6 (25 mg/kg) and the RNAse domain-specific inhibitor MKC8866 (20 mg/kg).
(§2) These inhibitors were independently administered intraperitoneally to C57BL/6J mice 6 hours and 30 minutes before acetic acid injection, and writhing behaviors were recorded for 30 minutes.

[2] = tested on: C57BL/6J mice; assay: Acetic acid-induced writhing model of inflammatory visceral pain; assay type: in vivo; settings: i.p. 6 hours and 30 minutes before 0.9% v/v acetic acid (5 ml/kg); recorded for 30 minutes; KIRA6 25 mg/kg, MKC8866 20 mg/kg, Celecoxib 20 mg/kg; vs vehicle
Procedure: (§3) All behavioral measurements were performed by a blinded observer before and after surgery (postoperative days 1-21) or acetic acid intraperitoneal injection (15-30 min). Animals were acclimated to the testing devices and/or places for 3 days, and baseline measurements were taken for at least 4 consecutive days before the surgery or acetic acid.
Writhing spontaneous pain behaviors were evaluated after intraperitoneal injection of 0.9% acetic acid (v/v, 5 ml/kg). The number of writhing responses was quantified immediately after acetic acid injection for 30 min in 5 min intervals by an observer blinded to genotype. Writings induced acetic acid are overt stretching behaviors indicative of abdominal pain, a phenomenon that is dependent upon mPGES-1 and PGE2 (Kamei et al. J Biol Chem 279, 33684 (Aug. 6, 2004); Trebino et al. Proc Nat Acad Sci USA 100, 9044 (Jul. 22, 2003)).
as §1, §2

[3] = tested on: C57BL/6J mice; assay: Paw incision model of post-surgical pain, behavioral tests; assay type: in vivo; settings: i.p. 6 hours and 30 minutes before paw incision, KIRA6 25 mg/kg, MKC8866 20 mg/kg; for flinching activity after paw incision / grimace score post-surgery / guarding score post-surgery / hind paw weight bearing distribution after paw incision / mechanical hypersensitivity (mechanical threshold) after paw incision / rearing activity after paw incision: Celecoxib 20 mg/kg, vs vehicle; for post-operative pain behaviors: figure legend
Procedure: Plantar incision surgery was performed as described by Pogatzki & Raja (Anesthesiology 99, 1023 (October 2003)). Briefly, mice were anesthetized with isoflurane in oxygen (4% induction, 1.5%-2% for maintenance) and the right hind paw was aseptically cleaned with 10% povidone-iodine solution. Then, a 5 mm incision was made in the glabrous hind-paw skin from the heel to the base of the toes using a No. 11 scalpel and sterile technique. The underlying muscle and ligaments were elevated with a curved forceps and stretched for 6-8 seconds, without incising them. The incision was closed using 5.0 nylon mattress sutures.
as §3
Mice were placed in individual acrylic chambers on an elevated mesh floor for 30-45 min before testing. Two spontaneous pain-relate behaviors were evaluated, rearings and paw flinches. Following the acclimatization period, the number of total vertical rearings and paw flinches were quantified during a 2-min period. Vertical rearings were defined as the number of times that the animal stood supporting its weight on both hind limbs. Vertical rearings are a normal behavior in rodents, thus a reduction of this behavior is indicative of a protective way to prevent pain due to movement, which mimics pain induced by surgeries in humans. Spontaneous flinching of the affected paw was quantified every time that the animal shacked the affected paw without any stimulation. Flinches of the injured paw is a pain-related behavior that is indicative of breakthrough pain, similar to intense spontaneous spike of pain in humans with postoperative pain.
Mechanical hypersensitivity was assessed after quantification of vertical rearings and spontaneous flinching. Mechanical withdrawal thresholds were calculated using the up-down method and applying force with calibrated Von Frey filaments (0.07-g, 0.17-g, 0.40-g, 0.60-g, 1.04-g, 1.37-g, and 2.0-g, Stoeling, Wood Dale, Ill., USA) to the plantar aspect of the paw for 5 seconds. Paw withdraws or flinching in response to a given applied force was noted as a positive response.
Hind paw weight bearing distribution was determined using an incapacitance tester apparatus (Stoelting, Ill., version 5.64). This is a test for non-reflexive behaviors that represents a spontaneous pain-related behavior that mimics postoperative pain behaviors in humans (protection of the surgery site from normal activities). Before surgery, animals were habituated for at least 3 days to the apparatus, in which animals stand with each hind paw resting on individual weight plates inside an acrylic chamber. The apparatus measures the body weight distributed between the two hind paws over a 3 second period and provides the average measurement. The average value of each hind paw was used to determine the weight distribution ratio (ispsilateral/contralateral side). A ratio below one indicates a greater weight bearing on the contralateral paw and was therefore considered as a pain-related behavior.
To determine whether pharmacological targeting of IRE1α could also modulate post-surgical pain. KIRA6 (FIG. 9A-9F) or MKC8866 (FIG. 10) was administered i.p. 6 hours and 30 minutes prior to paw incision surgery, and pain responses were monitored thereafter. […] Consistent with our results using conditional IRE1α-deficient mice, mechanical hypersensitivity remained unaltered upon administration of IRE1α inhibitors (FIGS. 9F and 10F). As a positive control, we administered equimolar amounts (20 mg/kg) of Celecoxib following the same scheme and route described above. […]

Structure (SMILES) | Ptges expression in peritoneal leukocytes [1] | Xbp1s expression in peritoneal leukocytes [1] | number of writhings after acetic acid injection [2] | flinching activity after paw incision [3] | grimace score post-surgery [3] | guarding score post-surgery [3] | hind paw weight bearing distribution after paw incision [3] | mechanical hypersensitivity (mechanical threshold) after paw incision [3] | rearing activity after paw incision [3] | post-operative pain behaviors [3]
CC(C)(C)c1nc(-c2ccc(NC(=O)Nc3cccc(C(F)(F)F)c3)c3ccccc23)c2c(N)nccn12 [KIRA6] | significantly reduced | significantly reduced | reduced; also recorded: decreased | reduced | significantly reduced | significantly reduced | more balanced | unaltered | unchanged | reduces
COc1cc2c(C)c(CC(=O)N3CCOCC3)c(=O)oc2c(C=O)c1O [MKC8866] | significantly reduced | significantly reduced | reduced; also recorded: decreased | reduced | significantly reduced | significantly reduced | more balanced | unaltered | unchanged | reduces
